This is an account of results in patent publication US20240317744A1, “Bicyclic Ureas As Kinase Inhibitors” (Incyte Corporation, priority 2023, published 2024).

For test [1], the target named is T1, catalytic domain (JH1, amino acids 826-1132) of human JAK2 (Homo sapiens, UniProt O60674).
T1 construct: catalytic domain (JH1, amino acids 826-1132) of human JAK2; FLAG (N); biotin (biotinylated); purchased Carna Biosciences 08-445-20N; host or cells: baculovirus expression system
The test is described as follows: JAK2 LanthaScreen JH1 Binding Assay. To be noted: JAK2 JH1 1.5 nM, 50 nM tracer, 2 hours at 25° C.; read-out: JH1 BIND. The method in brief: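 TR-FRET tracer-displacement format: compound IC50 from four-parameter curves after 2 h at 25° C. Reaction held 1.5 nM biotinylated, FLAG-tagged JH1 (aa 826-1132), 50 nM tracer, 0.5 nM Streptavidin-Tb, pH 7.5 Tris buffer; 2 mM ATP set nonspecific background.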
Background: In TR-FRET formats the signal depends on donor and acceptor labels being close together.

The target of test [2] is T2, pseudo-kinase domain (JH2, amino-acids 536-812) of human V617F mutant JAK2 (Homo sapiens, UniProt O60674, F794H/V617F/W659A/W777A).
T2 construct: pseudo-kinase domain (JH2, amino-acids 536-812 with 3 surface mutations W659A, W777A, F794H); His (C); purchased BPS Bioscience 79498; host or cells: baculovirus expression system
T2 sequence (O60674 536-812 V617F/W659A/W777A/F794H): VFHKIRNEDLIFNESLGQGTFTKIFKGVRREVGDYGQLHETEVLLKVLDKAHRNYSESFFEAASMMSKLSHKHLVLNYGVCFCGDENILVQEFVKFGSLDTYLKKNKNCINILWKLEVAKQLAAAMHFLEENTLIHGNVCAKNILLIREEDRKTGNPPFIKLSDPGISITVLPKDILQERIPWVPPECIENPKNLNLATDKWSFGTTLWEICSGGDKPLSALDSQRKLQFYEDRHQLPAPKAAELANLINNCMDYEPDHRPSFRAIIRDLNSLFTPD
The test is described as follows: JAK2 LanthaScreen JH2-V617F Binding Assay. To be noted: JAK2 JH2-V617F 0.26 nM, 50 nM tracer, 1 hour at 25° C.; read-out: JH2 BIND V617F. The method in brief: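 Binding was measured as TR-FRET displacement of 50 nM tracer from 0.26 nM biotinylated His-Avi protein, incubated one hour at 25° C; IC50 from a four-parameter fit.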

The target in test [3] is catalytic domain (JH1, amino acids 808-1132) of human JAK2 (Homo sapiens, UniProt O60674). The test is described as follows: JAK2 HTRF Enzyme Activity Assay. Type of test: biochemical. Particulars: ATP 30 µM, 60 minutes at 25° C.; read-out: V617F ENZ 30 UM.
Sequence of catalytic domain (JH1, amino acids 808-1132) of human JAK2 (O60674 808-1132 limits assumed): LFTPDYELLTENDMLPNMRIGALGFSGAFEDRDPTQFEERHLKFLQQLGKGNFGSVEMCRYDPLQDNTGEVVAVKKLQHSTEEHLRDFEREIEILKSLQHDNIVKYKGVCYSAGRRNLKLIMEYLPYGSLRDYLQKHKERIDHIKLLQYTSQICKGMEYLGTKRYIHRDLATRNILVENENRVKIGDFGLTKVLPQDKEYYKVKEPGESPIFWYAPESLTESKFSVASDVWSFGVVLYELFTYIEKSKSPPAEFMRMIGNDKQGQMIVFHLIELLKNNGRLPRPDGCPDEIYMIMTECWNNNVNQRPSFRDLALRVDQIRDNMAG
Test [4] has as its target T3, pseudo-kinase domain (JH2, amino-acids 536-812) of human Wild Type JAK2 (Homo sapiens, UniProt O60674, F794H/W659A/W777A).
T3 construct: pseudo-kinase domain (JH2, amino-acids 536-812 with 3 surface mutations W659A, W777A, F794H); His (C); purchased BPS Bioscience 79463; host or cells: baculovirus expression system
Kind of test: JAK2 LanthaScreen JH2-WT Binding Assay. Particulars: JAK2 JH2-WT 0.145 nM, 50 nM tracer, 1 hour at 25° C.; read-out: JH2 BIND WT. The method in brief: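 Compounds, serially diluted, were mixed with 0.145 nM JH2 domain, 50 nM tracer and 0.25 nM streptavidin-Tb cryptate, then incubated 1 hour at 25° C before LanthaScreen reading. Wells containing 2 mM ATP defined non-specific binding. Four-parameter dose-response curves gave IC50.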

T3 sequence (O60674 536-812 W659A/W777A/F794H): as the sequence (O60674 536-812 V617F/W659A/W777A/F794H) above, with F82V counted along it
T1 sequence (O60674 826-1132): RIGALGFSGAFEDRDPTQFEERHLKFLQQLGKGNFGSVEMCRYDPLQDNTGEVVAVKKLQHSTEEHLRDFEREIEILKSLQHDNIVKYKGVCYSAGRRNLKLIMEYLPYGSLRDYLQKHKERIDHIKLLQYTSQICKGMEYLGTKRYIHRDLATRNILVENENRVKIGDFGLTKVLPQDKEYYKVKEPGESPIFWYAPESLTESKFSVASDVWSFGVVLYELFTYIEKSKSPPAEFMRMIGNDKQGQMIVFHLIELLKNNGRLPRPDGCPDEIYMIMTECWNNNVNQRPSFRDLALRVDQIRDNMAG

With `Cn1cc(-c2cc(NC(=O)OC3CCC3)cc(Nc3cc4c(cn3)n(C)c(=O)n4[C@@H]3CC[C@@H](NC(=O)OC4CCOCC4)C3)c2)cn1` [Example 48, Tetrahydro-2H-pyran-4-yl ((1R,3R)-3-(6-((3-((cyclobutoxycarbonyl)amino)-5-(1-methyl-1H-pyrazol-4-yl)phenyl)amino)-3-methyl-2-oxo-2,3-dihydro-1H-imidazo[4,5-c]pyridin-1-yl)cyclopentyl)carbamate], the IC50 in test [1] was over 1000 nM; in test [2], 10 to 100 nM; in test [3] it was over 1000 nM; in test [4], 10 to 100 nM.
For the molecule `Cn1cc(-c2cc(NC(=O)OC3CCC3)cc(Nc3cc4c(cn3)n(C)c(=O)n4[C@@H]3CC[C@@H](NC(=O)Oc4ccc(F)cc4)C3)c2)cn1` [Example 49, 4-Fluorophenyl ((1R,3R)-3-(6-((3-((cyclobutoxycarbonyl)amino)-5-(1-methyl-1H-pyrazol-4-yl)phenyl)amino)-3-methyl-2-oxo-2,3-dihydro-1H-imidazo[4,5-c]pyridin-1-yl)cyclopentyl)carbamate], the IC50 is over 1000 nM in test [1], at most 10 nM in test [2], over 1000 nM in test [3] and at most 10 nM in test [4].
With `[2H]C([2H])([2H])n1c(=O)n([C@@H]2CC[C@@H](NC(=O)OC)C2)c2cc(Nc3cccc(C4CC4)n3)ncc21` [Example 50, Methyl ((1R,3R)-3-(6-((6-cyclopropylpyridin-2-yl)amino)-3-(methyl-d3)-2-oxo-2,3-dihydro-1H-imidazo[4,5-c]pyridin-1-yl)cyclopentyl)carbamate], the IC50 in test [1] was over 1000 nM; in test [2], 10 to 100 nM; in test [3] it was over 1000 nM; in test [4], at most 10 nM.
Turning to `COC(=O)N[C@@H]1CC[C@@H](n2c(=O)n(C)c3cnc(Nc4cc(-c5cnn(C)c5)cc(-c5cccc(C#N)c5)n4)cc32)C1` [Example 51, Methyl ((1R,3R)-3-(6-((6-(3-cyanophenyl)-4-(1-methyl-1H-pyrazol-4-yl)pyridin-2-yl)amino)-3-methyl-2-oxo-2,3-dihydro-1H-imidazo[4,5-c]pyridin-1-yl)cyclopentyl)carbamate], the IC50 in test [1] is over 1000 nM; in test [2] it was 10 to 100 nM; in test [3], over 1000 nM; in test [4] it was at most 10 nM.
Consider `[2H]C([2H])([2H])n1c(=O)n([C@@H]2CC[C@@H](NC(=O)OC)C2)c2cc(Nc3cc(C(=O)N4CCOCC4)c4cccc(C(F)(F)F)c4n3)ncc21` [Example 52, Methyl ((1R,3R)-3-(3-(methyl-d3)-6-((4-(morpholine-4-carbonyl)-8-(trifluoromethyl)quinolin-2-yl)amino)-2-oxo-2,3-dihydro-1H-imidazo[4,5-c]pyridin-1-yl)cyclopentyl)carbamate], for which the IC50 in test [1] is 500 to 1000 nM; in test [2], at most 10 nM; in test [3] it was 500 to 1000 nM; in test [4], at most 10 nM.
As to `COC(=O)Nc1cc(Nc2cc3c(cn2)n(C)c(=O)n3[C@@H]2CC[C@@H](NC(=O)OC)C2)cc(-c2cnn(C)c2)c1` [Example 53, Methyl ((1R,3R)-3-(6-((3-((methoxycarbonyl)amino)-5-(1-methyl-1H-pyrazol-4-yl)phenyl)amino)-3-methyl-2-oxo-2,3-dihydro-1H-imidazo[4,5-c]pyridin-1-yl)cyclopentyl)carbamate], the IC50 in test [1] is over 1000 nM; in test [2], 10 to 100 nM; in test [3] it was over 1000 nM; in test [4], at most 10 nM.
Take `[2H]C([2H])([2H])n1c(=O)n([C@@H]2CC[C@@H](NC(=O)OC)C2)c2cc(Nc3ccc4ncc(C5CC5)n4n3)ncc21` [Example 54, Methyl ((1R,3R)-3-(6-((3-cyclopropylimidazo[1,2-b]pyridazin-6-yl)amino)-3-(methyl-d3)-2-oxo-2,3-dihydro-1H-imidazo[4,5-c]pyridin-1-yl)cyclopentyl)carbamate]: the IC50 is over 1000 nM in test [1], at most 10 nM in test [2], over 1000 nM in test [3] and at most 10 nM in test [4].
Consider `COC(=O)N[C@@H]1CC[C@@H](n2c(=O)n(C)c3cnc(Nc4cc(NC(=O)OC5CC5)cc(OC)c4)cc32)C1` [Example 55, Methyl ((1R,3R)-3-(6-((3-((cyclopropoxycarbonyl)amino)-5-methoxyphenyl)amino)-3-methyl-2-oxo-2,3-dihydro-1H-imidazo[4,5-c]pyridin-1-yl)cyclopentyl)carbamate], for which the IC50 in test [1] is over 1000 nM; in test [2], 10 to 100 nM; in test [3], over 1000 nM; in test [4], at most 10 nM.
In the case of `COC(=O)N[C@@H]1CC[C@@H](n2c(=O)n(C)c3cnc(Nc4cc(NC(=O)OC5CCC5)cc(-c5cnn(C)c5)c4)cc32)C1` [Example 56, Methyl ((1R,3R)-3-(6-((3-((cyclobutoxycarbonyl)amino)-5-(1-methyl-1H-pyrazol-4-yl)phenyl)amino)-3-methyl-2-oxo-2,3-dihydro-1H-imidazo[4,5-c]pyridin-1-yl)cyclopentyl)carbamate], the IC50 in test [1] is over 1000 nM; in test [2] it was at most 10 nM; in test [3] it was over 1000 nM; in test [4], at most 10 nM.
Consider `COC(=O)N[C@@H]1CC[C@@H](n2c(=O)n(C)c3cnc(Nc4cc(NC(=O)C5CC5)cc(-c5cnn(C)c5)c4)cc32)C1` [Example 57, Methyl ((1R,3R)-3-(6-((3-(cyclopropanecarboxamido)-5-(1-methyl-1H-pyrazol-4-yl)phenyl)amino)-3-methyl-2-oxo-2,3-dihydro-1H-imidazo[4,5-c]pyridin-1-yl)cyclopentyl)carbamate], for which the IC50 was over 1000 nM in test [1], at most 10 nM in test [2], over 1000 nM in test [3] and at most 10 nM in test [4].
Turning to `[2H]C([2H])([2H])n1c(=O)n([C@@H]2CC[C@@H](NC(=O)OC)C2)c2cc(Nc3ccc4cccc(C5(C)CC5)c4n3)ncc21` [Example 58, Methyl ((1R,3R)-3-(3-(methyl-d3)-6-((8-(1-methylcyclopropyl)quinolin-2-yl)amino)-2-oxo-2,3-dihydro-1H-imidazo[4,5-c]pyridin-1-yl)cyclopentyl)carbamate], the IC50 was over 1000 nM in test [1], at most 10 nM in test [2], over 1000 nM in test [3] and at most 10 nM in test [4].
In the case of `[2H]C([2H])([2H])n1cc(-c2cnc3ccc(Nc4cc5c(cn4)n(C)c(=O)n5[C@@H]4CC[C@@H](NC(=O)OC)C4)nn23)c(F)n1` [Example 59, Methyl ((1R,3R)-3-(6-((3-(3-fluoro-1-(methyl-d3)-1H-pyrazol-4-yl)imidazo[1,2-b]pyridazin-6-yl)amino)-3-methyl-2-oxo-2,3-dihydro-1H-imidazo[4,5-c]pyridin-1-yl)cyclopentyl)carbamate], the IC50 in test [1] is over 1000 nM; in test [2], at most 10 nM; in test [3], over 1000 nM; in test [4], at most 10 nM.
On to `Cn1cc(-c2cc(NC(=O)OC3CCC3)cc(Nc3cc4c(cn3)n(C)c(=O)n4C3CCCC3)c2)cn1` [Example 60, Cyclobutyl (3-((1-cyclopentyl-3-methyl-2-oxo-2,3-dihydro-1H-imidazo[4,5-c]pyridin-6-yl)amino)-5-(1-methyl-1H-pyrazol-4-yl)phenyl)carbamate], for which the IC50 in test [1] was over 1000 nM; in test [2] it was 10 to 100 nM; in test [3] it was over 1000 nM; in test [4], 10 to 100 nM.
For the molecule `Cn1c(=O)n(C2CCCC2)c2cc(Nc3cc(NC(=O)OC4CCC4)cc(-c4cnn(C5CC5)c4)c3)ncc21` [Example 61, Cyclobutyl (3-((1-cyclopentyl-3-methyl-2-oxo-2,3-dihydro-1H-imidazo[4,5-c]pyridin-6-yl)amino)-5-(1-cyclopropyl-1H-pyrazol-4-yl)phenyl)carbamate], the IC50 in test [1] is over 1000 nM; in test [2], 100 to 500 nM; in test [3], over 1000 nM; in test [4], 10 to 100 nM.
`Cn1c(=O)n(C2CCOC2)c2cc(Nc3cc(NC(=O)OC4CCC4)cc(-c4cnn(C5CC5)c4)c3)ncc21` (stereo not drawn) [Example 62, Cyclobutyl (3-(1-cyclopropyl-1H-pyrazol-4-yl)-5-((3-methyl-2-oxo-1-(tetrahydrofuran-3-yl)-2,3-dihydro-1H-imidazo[4,5-c]pyridin-6-yl)amino)phenyl)carbamate]: the IC50 in test [1] is over 1000 nM; in test [2] it was 100 to 500 nM; in test [3], over 1000 nM; in test [4] it was 100 to 500 nM.
